Consider 67 compounds from ChEMBL document CHEMBL3804805, “Cathepsin B Inhibitors: Combining Dipeptide Nitriles with an Occluding Loop Recognition Element by Click Chemistry” (ACS Med Chem Lett, 2016).

Molecules are shown by their SMILES.

In assay [1] the target is T1, Cathepsin B (Homo sapiens, UniProt P07858). Description: Inhibition of human liver cathepsin B using Cbz-Arg-Arg-pNA as substrate at pH 6 incubated for 30 mins measured for 20 mins by photometrical analysis.
A further assay has as its target Cathepsin S (Homo sapiens, UniProt P25774). Description: Inhibition of human recombinant cathepsin S using Cbz-Phe-Arg-AMC as substrate incubated for 60 mins measured for 20 mins by spectrofluorometrical analysis.
Another assay deals with Procathepsin L (Homo sapiens, UniProt P07711). Description: Inhibition of human liver cathepsin L using Cbz-Phe-Arg-pNA as substrate incubated for 30 mins measured for 20 mins by photometrical analysis.
A further assay addresses T2, Cathepsin K (Homo sapiens, UniProt P43235).
T2 sequence (P43235 whole entry): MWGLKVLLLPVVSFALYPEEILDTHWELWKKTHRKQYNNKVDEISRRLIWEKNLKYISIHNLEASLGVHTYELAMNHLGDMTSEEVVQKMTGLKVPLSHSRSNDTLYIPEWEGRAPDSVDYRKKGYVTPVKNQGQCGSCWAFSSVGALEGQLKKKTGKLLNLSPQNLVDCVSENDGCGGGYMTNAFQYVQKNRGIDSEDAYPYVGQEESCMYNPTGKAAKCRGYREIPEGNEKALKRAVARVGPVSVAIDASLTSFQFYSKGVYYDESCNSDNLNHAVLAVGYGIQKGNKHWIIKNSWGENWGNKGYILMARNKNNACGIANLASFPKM
Description: Inhibition of human recombinant cathepsin K using Cbz-Leu-Arg-AMC as substrate incubated for 30 mins measured for 20 mins by spectrofluorometrical analysis.

Assay [2] concerns the target T1, Cathepsin B. Description: Inhibition of human cathepsin B.
The target in assay [3] is T1, Cathepsin B. Description: Inhibition of human liver cathepsin B using Cbz-Arg-Arg-pNA as substrate at pH 4.5 incubated for 30 mins measured for 20 mins by photometrical analysis.
Assay [4] has as its target T1, Cathepsin B. Description: Inhibition of human liver cathepsin B using Abz-Gly-Ile-Val-Arg-Ala-Lys(Dnp)-OH as substrate at pH 4.5 incubated for 30 mins measured for 10 mins by […].

As usually defined, the Ki is the equilibrium dissociation constant of an inhibitor or competing ligand from its target.

Procathepsin L, sequence (P07711 whole entry): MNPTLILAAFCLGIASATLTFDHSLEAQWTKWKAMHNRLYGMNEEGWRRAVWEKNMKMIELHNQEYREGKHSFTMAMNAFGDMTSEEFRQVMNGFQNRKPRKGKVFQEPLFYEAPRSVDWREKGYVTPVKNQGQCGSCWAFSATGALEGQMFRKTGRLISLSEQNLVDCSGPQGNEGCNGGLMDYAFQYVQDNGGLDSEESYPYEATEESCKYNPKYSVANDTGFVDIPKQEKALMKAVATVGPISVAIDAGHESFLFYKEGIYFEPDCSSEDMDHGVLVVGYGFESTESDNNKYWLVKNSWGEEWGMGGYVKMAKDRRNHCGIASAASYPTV
Cathepsin S, sequence (P25774 whole entry): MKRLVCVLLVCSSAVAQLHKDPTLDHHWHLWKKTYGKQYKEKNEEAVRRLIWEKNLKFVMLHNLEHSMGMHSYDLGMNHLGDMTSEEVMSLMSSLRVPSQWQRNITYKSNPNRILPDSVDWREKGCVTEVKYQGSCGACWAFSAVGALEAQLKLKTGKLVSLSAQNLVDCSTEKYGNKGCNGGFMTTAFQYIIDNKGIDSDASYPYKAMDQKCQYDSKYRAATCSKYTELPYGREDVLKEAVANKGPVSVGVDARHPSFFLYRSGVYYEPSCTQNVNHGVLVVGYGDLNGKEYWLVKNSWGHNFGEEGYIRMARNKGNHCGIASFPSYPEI

The compound `CN(CC#N)C(=O)[C@H](Cc1ccccc1)NC(=O)OCc1ccccc1` showed a Ki on Cathepsin B [1] of over 0.33 µM. Same read-out and setting: under `COc1ccc(C[C@H](NC(=O)OCc2ccccc2)C(=O)NCC#N)cc1` stands over 0.33 µM. As to `CC(C)(C)OC(=O)N[C@@H](Cc1cccc(-c2ccccc2)c1)C(=O)NCC#N`, the Ki on Cathepsin B [1] stood at 5.35 µM.

`N#CCNC(=O)[C@H](Cc1ccccc1)NC(=O)c1ccc(-c2ccccc2)cc1`: on Cathepsin B [1], affinity was put at a Ki of 3.92 µM.

Turning to `N#C[C@H](COCc1cn(CC(=O)O)nn1)NC(=O)[C@H](Cc1ccccc1)NC(=O)OCc1ccccc1`, the Ki on Cathepsin B [1] is 24 µM; on Cathepsin S, 4.48 µM; at Procathepsin L it was 1.05 µM; on Cathepsin K, 0.31 µM.

As to `CC(C)(C)OC(=O)N[C@@H](Cc1cccc2ccccc12)C(=O)NCC#N`, at Cathepsin B [1], the Ki is over 0.33 µM. `CCCC[C@H](NC(=O)OC(C)(C)C)C(=O)NCC#N` displayed a Ki on Cathepsin B [1] of over 0.33 µM. As to `CCC(C)[C@H](NC(=O)OC(C)(C)C)C(=O)NCC#N` (some centres not stated), the Ki on Cathepsin B [1] is over 0.33 µM. As to `N#C[C@H](Cc1cn(CCC(=O)O)nn1)NC(=O)[C@H](Cc1cccc(Br)c1)NC(=O)c1ccc(-c2ccccc2)cc1`, the Ki stood at 1.8 µM on Cathepsin S, 6.98 µM on Procathepsin L and 0.226 µM at Cathepsin K. `N#CCNC(=O)[C@H](CC1CCCCC1)NC(=O)c1ccc(-c2ccccc2)cc1` displayed a Ki on Cathepsin B [1] of over 0.33 µM. Regarding `N#CCNC(=O)[C@H](CC1CCCCC1)NC(=O)c1ccc(-c2noc(-c3cccs3)n2)cc1`, the inhibition constant Ki at Cathepsin B [1] was over 0.33 µM. The same measure, in the same setting: under `CSCC[C@@H](C#N)NC(=O)[C@H](Cc1ccccc1)NC(=O)OC(C)(C)C` stands over 0.33 µM; under `CN(CC#N)C(=O)[C@H](Cc1ccccc1)NC(=O)OC(C)(C)C`, over 0.33 µM. Turning to `CSCC[C@@H](C#N)NC(=O)C(CC(C)C)NC(=O)c1ccc(-c2ccccc2)cc1` (some centres not stated), the inhibition constant (Ki) at Cathepsin B [1] is over 0.33 µM. The same measure, in the same setting: the figure for `CC(C)C[C@H](NC(=O)OCc1ccccc1)C(=O)NCC#N` is 32 µM; for `CC(C)(C)OC(=O)N[C@@H](Cc1ccccc1)C(=O)N[C@H](C#N)CC#N` it is over 0.33 µM; for `CCC[C@H](NC(=O)OC(C)(C)C)C(=O)NCC#N` it is over 0.33 µM. On the same count and under the same terms, the figure for `CC(C)(C)OC(=O)N[C@@H](Cc1ccc(Br)cc1)C(=O)NCC#N` is over 0.33 µM; for `CC(C)(C)OC(=O)N[C@@H](Cc1c[nH]c2ccccc12)C(=O)NCC#N` it is over 0.33 µM; for `CC(C)(C)OC(=O)N[C@@H](CC1CCCCC1)C(=O)NCC#N` it is over 0.33 µM. On the same count and under the same terms, under `N#CCNC(=O)[C@H](Cc1ccc(O)cc1)NC(=O)OCc1ccccc1` stands over 0.33 µM; under `CC(C)(C)OC(=O)N[C@@H](Cc1ccco1)C(=O)NCC#N`, over 0.33 µM. On to `CC(C)(C)OC(=O)N[C@@H](CCc1ccccc1)C(=O)NCC#N`, for which the inhibitory constant (Ki) on Cathepsin B [1] was over 0.33 µM. Still for that read-out and setting: under `C[C@@H](C#N)N(C)C(=O)[C@H](Cc1ccccc1)NC(=O)OC(C)(C)C` stands over 0.33 µM; under `CC(C)(C)OC(=O)N[C@H](Cc1ccccc1)C(=O)NCC#N`, over 0.33 µM. Compound `CC(C)C[C@H](NC(=O)c1ccc(-c2ccccc2)cc1)C(=O)NCC#N` came in with a Ki at Cathepsin B [2] of 1.79 µM.

`N#CCNC(=O)[C@@H](N)Cc1ccccc1` registered a Ki on Cathepsin B [1] of over 0.33 µM. Same read-out and setting: under `CC(C)(C)OC(=O)N[C@H](C(=O)NCC#N)c1ccccc1` stands over 0.33 µM; under `CC(C)(C)OC(=O)N[C@@H](CC1CC1)C(=O)NCC#N`, over 0.33 µM. As for `N#C[C@H](CCOCc1cn(CCC(=O)O)nn1)NC(=O)[C@H](Cc1ccccc1)NC(=O)OCc1ccccc1`, the inhibitory constant (Ki) on Cathepsin B [1] was 196 µM; on Cathepsin S it was 0.49 µM; on Procathepsin L, 1.92 µM; at Cathepsin K it was 0.37 µM. In the case of `N#CCNC(=O)C1(NC(=O)c2ccc(-c3noc(-c4cccs4)n3)cc2)CCCCC1`, at Cathepsin B [1], the Ki is over 0.33 µM. Regarding `CC(C)C[C@H](NC(=O)OC(C)(C)C)C(=O)NCC#N`, on Cathepsin B [1], affinity was put at a Ki of 94 µM. The same measure, in the same setting: the figure for `CC(=O)N[C@@H](Cc1ccccc1)C(=O)NCC#N` is over 0.33 µM.

As to `N#CCNC(=O)[C@H](Cc1cccc(Br)c1)NC(=O)c1ccc(-c2ccccc2)cc1`, the inhibitory constant (Ki) at Cathepsin B [1] is 0.12 µM; at Cathepsin B [3], 0.205 µM; on Cathepsin B [4], 0.22 µM; at Cathepsin S, 0.178 µM; at Procathepsin L it was 0.609 µM; at Cathepsin K it was 0.93 µM. Compound `CC(C)C[C@@H](C#N)NC(=O)[C@H](C)NC(=O)CNC(=O)OCc1ccccc1` gave an inhibitory constant (Ki) at Cathepsin B [1] of over 0.33 µM. Still for that read-out and setting: under `N#CCNC(=O)CNC(=O)OCc1ccccc1` stands over 0.33 µM. On Cathepsin B [1], `C[C@H](NC(=O)OC(C)(C)C)C(=O)NCC#N` gave a Ki of over 0.33 µM.

Consider `N#C[C@H](Cc1cn(CC(=O)O)nn1)NC(=O)[C@H](Cc1cccc(Br)c1)NC(=O)c1ccc(-c2ccccc2)cc1`, for which the Ki at Cathepsin B [1] was determined as 11.2 µM; at Cathepsin B [3] it was 0.707 µM; at Cathepsin B [4] it was 0.368 µM; at Cathepsin S, 4.23 µM; on Procathepsin L it was 11.7 µM; at Cathepsin K it was 0.535 µM. Take `N#C[C@H](COCc1cn(CCC(=O)O)nn1)NC(=O)[C@H](Cc1ccccc1)NC(=O)OCc1ccccc1`: the inhibitory constant (Ki) on Cathepsin B [1] came to 33 µM; at Cathepsin S it was 2.25 µM; at Procathepsin L it was 1.27 µM; on Cathepsin K it was 0.37 µM.

For the compound `CC(C)(C)OC(=O)N[C@@H](Cc1ccc2ccccc2c1)C(=O)NCC#N`, at Cathepsin B [1], the affinity, expressed as Ki, was 3.46 µM.

As for `N#CCNC(=O)[C@H](Cc1cccc(-c2ccccc2)c1)NC(=O)c1ccc(-c2ccccc2)cc1`, the Ki is 1.23 µM at Cathepsin B [1], 2.66 µM on Cathepsin S, 0.707 µM at Procathepsin L and 0.0245 µM at Cathepsin K. As to `CC(C)C[C@H](NC(=O)Nc1ccc(-c2noc(-c3cccs3)n2)cc1)C(=O)NCC#N`, the Ki at Cathepsin B [1] is over 0.33 µM. Same read-out and setting: under `CC(C)(C)OC(=O)N[C@@H](Cc1cccs1)C(=O)NCC#N` stands over 0.33 µM. Regarding `C[C@@H](C#N)NC(=O)[C@H](Cc1ccccc1)NC(=O)OCc1ccccc1`, on Cathepsin B [1], the inhibitory constant (Ki) is over 0.33 µM. Same read-out and setting: the figure for `CC(C)(C)OC(=O)N[C@@H](Cc1ccc(-c2ccccc2)cc1)C(=O)NCC#N` is over 0.33 µM; for `CC(C)C[C@H](NC(=O)c1ccc(-c2noc(-c3cccs3)n2)cc1)C(=O)NCC#N` it is over 0.33 µM. On the same count and under the same terms, under `CC(C)(C)OC(=O)N[C@@H](Cc1ccc(F)cc1)C(=O)NCC#N` stands over 0.33 µM; under `CC[C@H](NC(=O)OC(C)(C)C)C(=O)NCC#N`, over 0.33 µM; under `CC(C)(C)OC(=O)NCC(=O)NCC#N`, over 0.33 µM. Same read-out and setting: the figure for `N#CCNC(=O)[C@H](Cc1ccccc1)NC(=O)c1ccccc1` is over 0.33 µM.

As to `COC(=O)Cn1cc(COC[C@@H](C#N)NC(=O)[C@H](Cc2cccc(Br)c2)NC(=O)c2ccc(-c3ccccc3)cc2)nn1`, the inhibition constant Ki was 0.026 µM on Cathepsin B [1]; 0.136 µM at Cathepsin B [3]; 0.131 µM on Cathepsin B [4]; 0.186 µM on Cathepsin S; 0.431 µM on Procathepsin L; 0.0676 µM on Cathepsin K. For `N#CCNC(=O)C1(NC(=O)OCc2ccccc2)CCCCC1`, the inhibition constant (Ki) on Cathepsin B [1] was over 0.33 µM. In the case of `N#CCNC(=O)[C@H](Cc1ccc2ccccc2c1)NC(=O)c1ccc(-c2ccccc2)cc1`, the Ki on Cathepsin B [1] came out at 0.126 µM; at Cathepsin S, 0.18 µM; at Procathepsin L, 4.3 µM; on Cathepsin K it was 4.5 µM. As for `N#C[C@H](CCOCc1cn(CC(=O)O)nn1)NC(=O)[C@H](Cc1ccccc1)NC(=O)OCc1ccccc1`, the Ki on Cathepsin B [1] amounted to 101 µM; on Cathepsin S, 1 µM; at Procathepsin L it was 2.16 µM; on Cathepsin K it was 0.58 µM. Turning to `CC(C)(C)OC(=O)N[C@@H](COCc1ccccc1)C(=O)NCC#N`, at Cathepsin B [1], the Ki was over 0.33 µM. On to `N#C[C@H](COCc1cn(CC(=O)O)nn1)NC(=O)[C@H](Cc1cccc(Br)c1)NC(=O)c1ccc(-c2ccccc2)cc1`, for which the inhibitory constant (Ki) was 0.0413 µM at Cathepsin B [1]; 0.0273 µM at Cathepsin B [3]; 0.0192 µM at Cathepsin B [4]; 0.352 µM on Cathepsin S; 6.3 µM at Procathepsin L; 0.335 µM on Cathepsin K.

In the case of `CSCC[C@@H](C#N)NC(=O)[C@H](CC1CCCCC1)NC(=O)OC(C)(C)C`, the inhibitory constant (Ki) at Cathepsin B [1] is over 0.33 µM.

On Cathepsin B [1], `CC(C)[C@H](NC(=O)OC(C)(C)C)C(=O)NCC#N` returned a Ki of over 0.33 µM. For the compound `CSCC[C@H](NC(=O)OC(C)(C)C)C(=O)NCC#N`, the Ki at Cathepsin B [1] is over 0.33 µM. The compound `CC(C)(C)OC(=O)N[C@@H](Cc1ccccc1)C(=O)NCC#N` displayed a Ki on Cathepsin B [1] of 37 µM. Still for that read-out and setting: under `CC(C)(C)OC(=O)N1CCC[C@H]1C(=O)NCC#N` stands over 0.33 µM. Turning to `CC(C)(C)OC(=O)N[C@@H](Cc1ccc(O)cc1)C(=O)NCC#N`, the inhibition constant (Ki) at Cathepsin B [1] was over 0.33 µM. Same read-out and setting: the figure for `CSCC[C@@H](C#N)NC(=O)[C@H](CC(C)C)NC(=O)c1ccc(-c2ccccc2)cc1` is 0.33 µM; for `N#CCNC(=O)[C@H](Cc1ccccc1)NC(=O)OCc1ccccc1` it is over 0.33 µM; for `CSCC[C@@H](C#N)NC(=O)[C@H](CC(C)C)NC(=O)OC(C)(C)C` it is over 0.33 µM. On the same count and under the same terms, the figure for `CC(C)(C)OC(=O)N[C@@H](Cc1ccccc1Br)C(=O)NCC#N` is over 0.33 µM; for `CC(C)(C)OC(=O)N[C@@H](Cc1cccc(Br)c1)C(=O)NCC#N` it is 5.17 µM.
